In patent US10471050B2, “2-OXO-1,2-dihydropyridine-3,5-dicarboxamide compounds as bromodomain inhibitors” (GlaxoSmithKline Intellectual Property (No. 2) Limited, priority 2015, dated 2019):
Read-outs that look alike come from different tables or passages of the source.

Molecular target: T1, BRD4 BD2 (Homo sapiens, UniProt O60885, Y97A)
T1 construct: BRD4 (1-477) (Y97A) and (Y390A); made in house; host or cells: E. coli (pET15b vector)
Experiment: BRD4 BD2 TR-FRET competition assay
Assay type: binding
Description: Bromodomain binding was assessed utilising a time resolved fluorescent resonance energy transfer (TR-FRET) competition assay. To enable this approach a known, high affinity, pan-BET interacting small molecule was labelled with Alexa Fluor® 647, which is a far-red-fluorescent dye (Reference Compound X). Reference Compound X acts as a reporter of bromodomain binding and is the acceptor fluorophore component of the TR-FRET pair. Europium chelate, conjugated to an anti-6*His antibody, was utilised as the donor fluorophore in the TR-FRET pair. […] A TR-FRET signal is generated when the donor and acceptor fluorophores are in close proximity, between 20-80 Å, which is enabled in this assay by binding of Reference Compound X to the bromodomain protein.
In order to generate a TR-FRET signal, donor fluorophore is excited by a laser at λ337 nm, which subsequently leads to emission at λ618 nm. If the acceptor fluorophore is in close proximity then energy transfer can occur, which leads to emission of Alexa Fluor® 647 at λ665 nm. In the presence of competitor compound, Reference Compound X can be displaced from binding to the bromodomain. If displacement occurs, the acceptor fluorophore is no longer in proximity to the donor fluorophore, which prevents fluorescent energy transfer and, subsequently, a loss of Alexa Fluor® 647 emission at λ665 nm.
The competition of the compounds of formula (I) with Reference Compound X for binding to the BET family (BRD2, BRD3, BRD4 and BRDT) was assessed using protein truncates spanning both bromodomain 1 (BD1) and bromodomain 2 (BD2). In order to monitor differential binding to either BD1 or BD2, single residue mutations of key tyrosines to alanine were made in the acetyl lysine binding pockets. To validate this approach, a double residue mutant tandem domain protein was produced for each of the BET family members. Utilising a Fluorescence Polarisation approach, binding affinities for each of the single and double mutants for Reference Compound X were determined.
Final purification was completed by Superdex 200 prep grade size exclusion column. Purified protein was stored at −80° C. in 20 mM HEPES pH 7.5 and 100 mM NaCl.
All assay components were dissolved in an assay buffer composing of 50 mM HEPES pH7.4, 50 mM NaCl, 5% Glycerol, 1 mM DTT and 1 mM CHAPS. Reference Compound X was diluted, in assay buffer containing 20 nM single mutant, tandem bromodomain protein, to a concentration equivalent to 2*Kd for this bromodomain. The solution containing bromodomain and Reference Compound X was added to dose response dilutions of test compound or DMSO vehicle (a maximum of 0.5% DMSO is used in this assay) in Greiner 384 well black low volume microtitre plates and subsequently incubated for 30 minutes at room temperature. An equal volume of 3 nM of anti-6*His Europium chelate was added to all wells, followed by a further 30 minute incubation at room temperature. TR-FRET was detected using a Perkin Elmer Multimode plate reader, by exciting the donor fluorophore at λ337 nm and subsequently, after a delay of 50 μsecs, measuring emission of the donor and acceptor fluorophores at λ615 nm and λ665 nm, respectively. In order to control these assays, 16 replicates each of uninhibited (DMSO vehicle) and inhibited (10*IC50 concentrations of Example 11 of WO 2011/054846A1) TR-FRET assays were included on every microtitre plate.
cA four parameter curve fit of the following form was then applied: y=a+((b−a)/(1+(10^x/10^c)^d)
Where ‘a’ is the minimum, ‘b’ is the Hill slope, ‘c’ is the pIC50 and ‘d’ is the maximum.

[1] = single mutant tandem BRD4, read-out: pIC50 in the BRD4 BD2 assay (converted)
[2] = average of N recorded values, read-out: BRD4 BD2 IC50 (average value) (converted)

Structure (SMILES) | IC50 [1] | IC50 [2]
CCCNC(=O)c1cc(C(=O)NC)c(=O)n(Cc2ccccc2)c1 [Example 2, 1-Benzyl-N^3-methyl-2-oxo-N^5-propyl-1,2-dihydropyridine-3,5-dicarboxamide] | 100 to 1000 nM | 126 nM
CNC(=O)c1cc(C(=O)NCCCO)cn(Cc2ccccc2)c1=O [Example 32, 1-Benzyl-N^5-(3-hydroxypropyl)-N^3-methyl-2-oxo-1,2-dihydropyridine-3,5-dicarboxamide] | 100 to 1000 nM | –
CNC(=O)CCCNC(=O)c1cc(C(=O)NC)c(=O)n(Cc2ccccc2)c1 [Example 5, 1-Benzyl-N^3-methyl-N^5-(4-(methylamino)-4-oxobutyl)-2-oxo-1,2-dihydropyridine-3,5-dicarboxamide] | 100 to 1000 nM | –
CCCCNC(=O)c1cc(C(=O)NC)c(=O)n(Cc2ccccc2)c1 [Example 3, 1-Benzyl-N^5-butyl-N^3-methyl-2-oxo-1,2-dihydropyridine-3,5-dicarboxamide] | 100 to 1000 nM | –
CNC(=O)c1cc(C(=O)NCC(C)OC)cn(Cc2ccccc2)c1=O (stereo not drawn) [Example 29, 1-Benzyl-N^5-(2-methoxypropyl)-N^3-methyl-2-oxo-1,2-dihydropyridine-3,5-dicarboxamide] | 1000 to 100000 nM | –
CNC(=O)c1cc(C(=O)NCCCS(C)(=O)=O)cn(Cc2ccccc2)c1=O [Example 48, 1-Benzyl-N^3-methyl-N^5-(3-(methylsulfonyl)propyl)-2-oxo-1,2-dihydropyridine-3,5-dicarboxamide] | 100 to 1000 nM | –
CNC(=O)c1cc(C(=O)Nc2cnn(C)c2)cn(Cc2ccccc2)c1=O [Example 53, 1-Benzyl-N^3-methyl-N^5-(1-methyl-1H-pyrazol-4-yl)-2-oxo-1,2-dihydropyridine-3,5-dicarboxamide] | ≤ 100 nM | –
CNC(=O)c1cc(C(=O)NCCc2ccccn2)cn(Cc2ccccc2)c1=O [Example 10, 1-Benzyl-N^3-methyl-2-oxo-N^5-(2-(pyridin-2-yl)ethyl)-1,2-dihydropyridine-3,5-dicarboxamide] | 100 to 1000 nM | –
CNC(=O)c1cc(C(=O)NCCc2cn[nH]c2)cn([C@H](C)c2ccccc2)c1=O [Example 15, (R)-N^5-(2-(1H-Pyrazol-4-yl)ethyl)-N^3-methyl-2-oxo-1-(1-phenylethyl)-1,2-dihydropyridine-3,5-dicarboxamide] | ≤ 100 nM | –
CNC(=O)c1cc(C(=O)NCCCC#N)cn(Cc2ccccc2)c1=O [Example 36, 1-Benzyl-N^5-(3-cyanopropyl)-N^3-methyl-2-oxo-1,2-dihydropyridine-3,5-dicarboxamide] | 100 to 1000 nM | –
CCNC(=O)c1cc(C(=O)NC)c(=O)n(Cc2cccc(C)c2)c1 [Example 14, N^5-Ethyl-N^3-methyl-1-(3-methylbenzyl)-2-oxo-1,2-dihydropyridine-3,5-dicarboxamide] | 100 to 1000 nM | –
CNC(=O)c1cc(C(=O)NCCS(C)(=O)=O)cn(Cc2ccccc2)c1=O [Example 45, 1-Benzyl-N^3-methyl-N^5-(2-(methylsulfonyl)ethyl)-2-oxo-1,2-dihydropyridine-3,5-dicarboxamide] | 100 to 1000 nM | –
CNC(=O)c1cc(C(=O)NCCC(F)(F)F)cn(Cc2ccccc2)c1=O [Example 7, 1-Benzyl-N^3-methyl-2-oxo-N^5-(3,3,3-trifluoropropyl)-1,2-dihydropyridine-3,5-dicarboxamide] | 100 to 1000 nM | –
CNC(=O)c1cc(C(=O)NCCc2ccncc2)cn(Cc2ccccc2)c1=O [Example 34, 1-Benyl-N^3-methyl-2-oxo-N^5-(2-(pyridin-4-yl)ethyl)-1,2-dihydropyridine-3,5-dicarboxamide] | 100 to 1000 nM | –
CNC(=O)c1cc(C(=O)NCCC#N)cn(Cc2ccccc2)c1=O [Example 37, 1-Benzyl-N^5-(2-cyanoethyl)-N^3-methyl-2-oxo-1,2-dihydropyridine-3,5-dicarboxamide] | 100 to 1000 nM | –
CNC(=O)c1cc(C(=O)NCC(C)O)cn(Cc2ccccc2)c1=O (stereo not drawn) [Example 31, 1-Benzyl-N^5-(2-hydroxypropyl)-N^3-methyl-2-oxo-1,2-dihydropyridine-3,5-dicarboxamide] | 1000 to 100000 nM | –
CNC(=O)c1cc(C(=O)NCCC(C)N(C)C)cn(Cc2ccccc2)c1=O (stereo not drawn) [Example 33, 1-Benzyl-N^5-(3-(dimethylamino)butyl)-N^3-methyl-2-oxo-1,2-dihydropyridine-3,5-dicarboxamide] | 100 to 1000 nM | –
CCNC(=O)c1cc(C(=O)NC)c(=O)n(Cc2cccc(OCCO)c2)c1 [Example 20, N^5-Ethyl-1-(3-(2-hydroxyethoxy)benzyl)-N^3-methyl-2-oxo-1,2-dihydropyridine-3,5-dicarboxamide] | 100 to 1000 nM | 251 nM
CNC(=O)c1cc(C(=O)NCCC(C)O)cn(Cc2ccccc2)c1=O (stereo not drawn) [Example 39, 1-Benzyl-N^5-(3-hydroxybutyl)-N^3-methyl-2-oxo-1,2-dihydropyridine-3,5-dicarboxamide] | 100 to 1000 nM | –
CCNC(=O)c1cc(C(=O)NC)c(=O)n(Cc2cccc(OC)c2)c1 [Example 18, N^5-ethyl-1-(3-methoxybenzyl)-N^3-methyl-2-oxo-1,2-dihydropyridine-3,5-dicarboxamide] | 100 to 1000 nM | –

Other lines, results leading:

IC50 [1] | IC50 [2] | Structure (SMILES)
100 to 1000 nM | – | CNC(=O)c1cc(C(=O)NCCc2c[nH]cn2)cn(Cc2cccc(C)c2F)c1=O [Example 49, N^5-(2-(1H-Imidazol-4-yl)ethyl)-1-(2-fluoro-3-methylbenzyl)-N3-methyl-2-oxo-1,2-dihydropyridine-3,5-dicarboxamide]
100 to 1000 nM | – | CNC(=O)c1cc(C(=O)NCCc2cnc[nH]2)cn(Cc2ccccc2)c1=O [Example 8, N^5-(2-(1H-Imidazol-5-yl)ethyl)-1-benzyl-N^3-methyl-2-oxo-1,2-dihydropyridine-3,5-dicarboxamide]
≤ 100 nM | 25.1 nM | CCNC(=O)c1cc(C(=O)NC)c(=O)n(Cc2cccc3[nH]ccc23)c1 [Example 25, 1-((1H-Indol-4-yl)methyl)-N^5-ethyl-N^3-methyl-2-oxo-1,2-dihydropyridine-3,5-dicarboxamide]
100 to 1000 nM | – | CNC(=O)c1cc(C(=O)NCCc2cn[nH]c2)cn(Cc2cccc(C)c2F)c1=O [Example 23, N^5-(2-(1H-Pyrazol-4-yl)ethyl)-1-(2-fluoro-3-methylbenzyl)-N^3-methyl-2-oxo-1,2-dihydropyridine-3,5-dicarboxamide]
≤ 100 nM | 100 nM | CNC(=O)c1cc(C(=O)NCCc2cn[nH]c2)cn(Cc2cccc(C)c2)c1=O [Example 13, N^5-(2-(1H-Pyrazol-4-yl)ethyl)-N^3-methyl-1-(3-methylbenzyl)-2-oxo-1,2-dihydropyridine-3,5-dicarboxamide]
≤ 100 nM | – | CNC(=O)c1cc(C(=O)NCCc2cn[nH]c2)cn(Cc2cccc3[nH]ccc23)c1=O [Example 26, 1-((1H-Indol-4-yl)methyl)-N^5-(2-(1H-pyrazol-4-yl)ethyl)-N^3-methyl-2-oxo-1,2-dihydropyridine-3,5-dicarboxamide]
100 to 1000 nM | – | CNC(=O)c1cc(C(=O)NCCc2c[nH]cn2)cn(Cc2cccc(OCCO)c2)c1=O [Example 19, N^5-(2-(1H-imidazol-4-yl)ethyl)-1-(3-(2-hydroxyethoxy)benzyl)-N^3-methyl-2-oxo-1,2-dihydropyridine-3,5-dicarboxamide]
≤ 100 nM | – | CNC(=O)c1cc(C(=O)NCCc2cn[nH]c2)cn(Cc2ccccc2)c1=O [Example 12, N^5-(2-(1H-Pyrazol-4-yl)ethyl)-1-benzyl-N^3-methyl-2-oxo-1,2-dihydropyridine-3,5-dicarboxamide]
100 to 1000 nM | – | CNC(=O)c1cc(C(=O)NCCc2cn[nH]c2)cn(Cc2cccc(OC)c2)c1=O [Example 17, N^5-(2-(1H-pyrazol-4-yl)ethyl)-1-(3-methoxybenzyl)-N^3-methyl-2-oxo-1,2-dihydropyridine-3,5-dicarboxamide]
